# According to patent US20260062422A1 (Halda Therapeutics OpCo, Inc., priority 2022, published 2026):
# How the values were obtained:
# VCaP cells = experiment: Cellular growth inhibition assay for VCaP cells, CellTiter-Glo; format: cell-based, human; details: 72 hours treatment, CellTiter-Glo 2.0
# Procedure, shortened: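 GI50 values come from four-parameter curve fits of luminescence data normalized to a zero baseline. Compound, in medium with 0.5% DMSO, was added one day after plating and left for 72 h before CellTiter-Glo 2.0 addition.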
# T47D cells = experiment: Cellular growth inhibition assay for T47D cells, CellTiter-Glo; format: cell-based, human; details: 72 hours treatment, CellTiter-Glo 2.0 cell viability
# Procedure, shortened: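 Growth inhibition as GI50, fitted with four parameters to CellTiter-Glo luminescence after 72 h of compound exposure (0.5% DMSO). Cells were T47D, grown in insulin-supplemented (0.2 units/mL) DMEM with 10% FBS and treated one day post-seeding.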
Structure (SMILES),GI50 (VCaP cells) [nM],GI50 (T47D cells) [nM],"GI50 (VCaP cells; Homo sapiens, VCaP, 72 h) [nM]","GI50 (T47D cells; Homo sapiens, T47D, 72 h) [nM]"
Cc1sc2c(c1C)C(c1ccc(CC3CC4(CCN(c5ccc(C(=O)N[C@H]6C(C)(C)[C@H](Oc7ccc(C#N)c(Cl)c7)C6(C)C)cn5)CC4)C3)cc1)=N[C@@H](Cc1ncco1)c1nnc(C)n1-2 [Compound I-143],< 500,< 500,,
Cc1sc2c(c1C)C(c1ccc(N3CC(N4CCN(c5ncc(C(=O)N[C@H]6C(C)(C)[C@H](Oc7ccc(C#N)c(Cl)c7)C6(C)C)cn5)CC4)C3)cc1)=NC(Cc1ncco1)c1nnc(C)n1-2 (stereo partly shown) [Compound I-208],,,< 500,< 500
